Reference: patent US6989397B1, “Iron chelators and uses thereof” (University of Queensland, priority 1999, dated 2006)
“And” between values parts separate entries of the source, which are not always exact repeats. Equal values may be shown once.

What was measured:
SK-Mel-28 melanoma cells = assay: internalized 59Fe uptake from 59Fe-transferrin; assay type: cell-based, human; conditions: 59Fe-transferrin 0.75 μM, 3 h at 37° C., chelators 50 μM, DFO 100 μM, mean±SD
Description: The effect of chelators on ^59Fe uptake from ^59Fe-Tf and ^59Fe release from prelabelled cells was studied using standard procedures reported previously (Richardson et al., 1994, J. Lab Clin. Med. 124 660–71). The amount of ^59Fe internalized by the cells was measured by incubation with the general protease pronase (1 mg/ml) for 30 min at 4° C. to remove membrane-bound ^59Fe and Tf (Richardson et al., 1990; Baker et al., 1998, Biochim. Biophys. Acta 1380 21–30).
Table 2. The effect of DFO, 311, PCTH, PCBH, or PCBHH on internalized ^59Fe uptake from ^59Fe-transferrin by BE-2 neuroblastoma cells, SK-N-MC neuroepithelioma cells, and SK-Mel-28 melanoma cells. Cells were incubated with the chelators and ^59Fe-transferrin (0.75 μM) for 3 h at 37° C., washed, and incubated for 30 min at 4° C. with pronase (1 mg/ml) to separate the internalized from the membrane-bound ^59Fe. All chelators were screened at a concentration of 50 μM except for DFO which was examined at 100 μM. Results are mean±SD (three determinations) from a typical experiment.

[1] = test system: iron-regulatory proteins (IRPs); assay: iron regulatory protein gel-retardation assay (IRP-RNA binding activity); assay type: cell-based, human; conditions: SK-N-MC cells, 20 hr incubation; chelators 25 μM, DFO 100 μM, FAC 100 μg/ml
Description: FIG. 5. The effect of the chelators on the RNA-binding activity of the iron-regulatory proteins (IRPs) in the SK-N-MC neuroepithelioma cells. Cells were incubated for 20 h with either medium alone (control), ferric ammonium citrate (FAC: 100 μg/ml), DFO (100 μM), or the other chelators (25 μM).
A gel-retardation assay was used to measure the interaction between the IRPs and IRE using established techniques (Leibold et al., […]. Proc. Natl. Acad. Sci. USA 85 2171–5; Müllner et al., 1989 Cell 58 373–82). Briefly, after incubation with medium alone (control) or medium containing ferric ammonium citrate (100 μg/ml: Aldrich Ltd., Sydney, Australia) or the chelator. […] cells were washed with ice-cold phosphate-buffered saline (PBS) and lysed at 4° C. in 40 μl of ice-cold Munro extraction buffer (10 mM HEPES, pH 7.6, 3 mM MgCl2, 40 mM KCl, 5% glycerol, 1 MM dithiothreitol and 0.5% Nonidet P-40). After lysis, the samples were then centrifuged at 10,000 rpm for 3 mins at 4° C. to remove nuclei and the supernatant stored at −70° C. Frozen cytoplasmic extracts were thawed on ice and then centrifuged at 15,000 rpm for 10 min at 4° C. The protein concentration of the soluble supernatant was determined using the BioRad protein assay (BioRad Ltd., USA). Samples of cytoplasmic extracts were diluted to a protein concentration of 100 μg/ml in Munro buffer without Nonidet P-40 and 1 μg aliquots were analyzed for IRP by incubation with 0.1 ng (approximately 1×10^5 cpm) of ^32P-labelled pGL66 RNA transcript (Leibold et al., 1988). The riboprobe was transcribed in vitro from linearized plasmid templates using SP6 RNA polymerase in the presence of α-^32P UTP (Dupont, NEN). This latter reaction was performed using the Promega Riboprobe In Vitro Transcription Kit (Promega, Madison, Wis., USA). The probe was subsequently purified on a 6% urea/PAGE gel. To form RNA-protein complexes, cytoplasmic extracts containing 1 μg of protein were incubated for 10 mins at room temperature with the ^32P-labelled riboprobe. Unprotected probe was degraded by incubation with 1 U of RNAse T1 for 10 mins at room temperature. Heparin (Sigma) at a final concentration of 5 mg/ml was then added and incubated with the extract for another 10 min at room temperature to exclude non-specific binding. RNA-protein complexes were analyzed in 6% non-denaturing polyacrylamide gels at 4° C. as described by Konarska et al., 1986, Cell 46 845–55. Gels were dried, covered in plastic film and exposed to Kodak XAR films at −70° C. with an intensifying screen.
An important effect of intracellular Fe depletion using DFO is the activation of RNA-binding activity of the iron regulatory proteins (IRP's) (Hentze et al., 1996, Proc. Natl. Acad. Sci. USA 93 8175–82). […] The present inventors examined the effect of a 20 hr incubation with 311, PIH and the PCIH analogues (25 μM) on IRP-RNA binding activity in SK-N-MC cells. In all experiments, DFO (100 μM) was used as a positive control to deplete cells of Fe and increase IRP-RNA binding activity. In contrast, ferric ammonium citrate (FAC: 100 μg/ml) was used to donate Fe to cells and reduce IRP-RNA binding.

[2] = test system: 59Fe-loaded reticulocytes; assay: mobilisation of 59Fe from 59Fe-loaded reticulocytes (mitochondrial Fe overload model); assay type: cell-based, rabbit
Description: (§1) FIG. 7. The effect of reincubation time with the Fe chelators on ^59Fe mobilization from ^59Fe-loaded reticulocytes. The cells were labelled with ^59Fe-transferrin (3.75 μM) in the presence of the heme synthesis inhibitor, succinylacetone (1 mM), and incubated with the cells for 1 h at 37° C. The ^59Fe-labelled reticulocytes were then incubated with the chelators (200 μM) for 15–240 min at 37° C. The results are Mean±SD (3 determinations) in a typical experiment of three performed.
as §1, with “9.” for “7.”, “chelator concentration” for “reincubation time with the Fe chelators”, “(10–200” for “(200”
Reticulocytosis was induced by standard procedures (Richardson, D. R., Ponka, P and Vyoral, D (1996) Blood 87, 3477–3488) in New Zealand white rabbits by repeated phlebotomy by cardiac puncture using a protocol approved by the McGill University Animal Care Committee. Reticulocytes were identified based on staining with new methylene blue, and cell counts were determined using an improved Neubauer counting chamber.
Reticulocytes were obtained from chronically bled rabbits as described above and were incubated with 1 mM succinylacetone (SA: Sigma) to inhibit heme synthesis. After a 15 min preincubation in the presence of SA, ^59Fe-Tf ([…]) was added and incubated with the cells for 1 H at 37° C. with shaking. After this incubation the reticulocytes were washed three times with ice-cold PBS to remove non-specifically bound ^59Fe-Tf. The washed ^59Fe-labelled reticulocytes (30–35 μL) were incubated in buffered salt solution (250 μL final volume) with the apochelators. The SA was present in all incubations with the chelators to prevent the utilization of non-heme ^59Fe for heme synthesis. After the incubation, ^59Fe was measured both in washed reticulocytes and in the medium, and the percentage of ^59Fe mobilized from the reticulocytes was then calculated.

SMILES	IRP-RNA binding activity compared to the control (FIG. 5) [1]	Internalised Iron Uptake (% Control) (SK-Mel-28 melanoma cells)	effect on mobilizing 59Fe from 59Fe-loaded reticulocytes at high concentrations ([2]; high concentrations up to 5 mM, activity similar to control medium)	cellular 59Fe released from 59Fe-loaded reticulocytes, 1 h reincubation (FIG. 9) ([2]; chelator concentration 200 μM (range 10–200 μM), reincubated 1 h at 37° C., 3 determinations)	cellular 59Fe mobilized from 59Fe-loaded reticulocytes after 240 min ([2]; chelators 200 μM, 240 min of incubation, FIG. 7) [%]
O=C(NN=Cc1c(O)ccc2ccccc12)c1ccncc1 [Chelator 311, 2-hydroxy-1-naphthylaldehyde isonicotinoyl hydrazone, reference compound]	marked increase	9 ± 1 % Control			
CC(=O)N(O)CCCCCNC(=O)CCC(=O)N(O)CCCCCNC(=O)CCC(=O)N(O)CCCCCN [DFO, desferrioxamine, reference compound]	increase	98 % Control and 98 ± 7 % Control	little effect		

More lines, main results first:

IRP-RNA binding activity compared to the control (FIG. 5) [1]	SMILES	Internalised Iron Uptake (% Control) (SK-Mel-28 melanoma cells)	effect on mobilizing 59Fe from 59Fe-loaded reticulocytes at high concentrations ([2]; high concentrations up to 5 mM, activity similar to control medium)	cellular 59Fe released from 59Fe-loaded reticulocytes, 1 h reincubation (FIG. 9) ([2]; chelator concentration 200 μM (range 10–200 μM), reincubated 1 h at 37° C., 3 determinations)	cellular 59Fe mobilized from 59Fe-loaded reticulocytes after 240 min ([2]; chelators 200 μM, 240 min of incubation, FIG. 7) [%]
decreased	O=C(NN=Cc1ccco1)c1ccncc1 [FIH, 2furoylcarboxaldehyde isonicotinoyl hydrazone]			very low activity	4
marked increase	O=C(NN=Cc1ccccn1)c1ccccc1 [PCBH, 2-pyridylcarboxaldehyde benzoyl hydrazone]	36 ± 6 % Control			
marked increase	O=C(NN=Cc1ccccn1)c1cccs1 [PCTH, 2-pyridylcarboxaldehyde 2-thiophenecarboxyl hydrazone]	38 ± 6 % Control			
